Values quoted from earlier work as cited in patent publication US6197535A, “Methods for purifying and assaying a conus γ-carboxylase” (University of Utah Research Foundation, priority 1999, dated 2001).

Test system: N-methyl-D-aspartate receptor
Conditions: cited from earlier work

Conantokin-G
inhibition of the N-methyl-D-aspartate receptor: inhibits
